Patent US20220402916A1, “SMALL MOLECULE INHIBITORS OF KRAS G12C MUTANT” (Merck Sharp & Dohme Corp., priority 2019, published 2022)
Where two headings read alike, the source gives them in different places.

How the values were obtained:
[1] = target: T1, Biotinylated KRAS G12C protein (Homo sapiens, UniProt P01116, C118S/C51S/C80L/G12C); experiment: SOS-catalyzed nucleotide exchange assay; assay type: biochemical; conditions: for IC50: apparent potency, preincubation time of 60 minutes prior to addition of SOS; for inhibition at 10 µM: 10,000 nM, 60 minutes of preincubation prior to addition of SOS
T1 construct: 183 amino acids; biotin on K10
T1 sequence (P01116 with tags, fused parts or gaps isoform P01116-2 G12C/C51S/C80L/C118S): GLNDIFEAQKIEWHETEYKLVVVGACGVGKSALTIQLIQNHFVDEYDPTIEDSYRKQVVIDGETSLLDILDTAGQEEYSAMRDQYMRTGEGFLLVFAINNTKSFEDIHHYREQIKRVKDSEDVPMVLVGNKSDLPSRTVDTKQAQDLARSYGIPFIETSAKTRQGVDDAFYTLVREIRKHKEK
Method: Compounds are added to this complex, and then after 60 minute incubation time the mixture is treated with recombinant SOS protein and unlabeled GTP. Small molecule inhibitors stabilize the Bodipy-GDP complex whereas the untreated protein rapidly exchanges Bodipy-GDP for unlabeled GTP resulting in reduced TR-FRET signal. […] This mixture is then further diluted to 90 nM in an assay buffer (20 mM HEPES, 150 mM sodium chloride, 10 mM magnesium chloride, and 0.005% Tween) containing 15 nM of Terbium-Streptavidin (Invitrogen, catalog #PV3577) and 900 nM of Bodipy-GDP and incubated at room temperature for six hours. […] Each test compound (10 mM stock in DMSO) is diluted in DMSO to make a 10-point, 3-fold dilution series in a 384-well low dead volume microplate (Labcyte, catalog #LP-0200). Once titrations are made, 10 nL of the diluted compounds is acoustically dispensed into a 384-well assay plate (Corning, catalog #3820) using an Echo 550 (Labcyte). […] Each well then receives 3 μL of 240 nM recombinant human SOS protein and 9 mM GTP (Sigma, G8877) in assay buffer and is incubated at room temperature for 60 minutes. The time-resolved fluorescence resonance energy transfer signal for the assay plate is measured on an Envision (PerkinElmer) plate reader: Excitation filter=340 nm; emission1=495 nm; emission2=520 nm; dichroic mirror=D400/D505; delay time=100 μs. The signal of each well is determined as the ratio of the emission at 520 nm to that at 495 nm. […] The apparent effect as a function of compound concentration is fit to a four parameter logistic equation.

NCI-H358 cells = experiment: Cellular phospho-ERK assay; assay type: cell-based; conditions: Homo sapiens, NCI-H358, 2 h
Method: NCI-H358 cells (ATCC® CRL-5807™) were cultured in T150 flask in growth medium (RPMI medium 1640-GlutaMAX™-1 (ThermoFisher Scientific 61870) containing 10% fetal bovine serum (ThermoFisher Scientific 10091148)). The cells were harvested in growth medium after TrypLE (ThermoFisher scientific 12604021) digestion and were seeded in 384-well collagen coated cell culture plate (Corning 356702) at a density of 15,000 cells/well, and incubated at 37° C., 5% CO2 overnight. The compound dose-response titrations were prepared and appropriate amounts of compounds were dispensed in 384-well intermediate plate using Echo 550 liquid handler. RPMI medium 1640-GlutaMAX™-I were added to the intermediate plate and transferred to 384-well cell culture plate, which was incubated at 37° C., 5% CO2 for 2 hours. After removal of medium from the plate, cells were lysed in lysis buffer from Alpha SureFire® Ultra™ Multiplex p-Erk and total Erk assay kit (PerkinElmer MPSU-PTERK) containing Halt™ Protease and Phosphotase inhibitor cocktail (ThermoFisher Scientific 78446) at room temperature with constant shaking at 300 rpm for 30 minutes. The cell lysates were then transferred to OptiPlate-384 plate (PerkinElmer 6005620) and the phosphorylation of Erk and total Erk levels were detected by Alpha SureFire Ultra Multiplex p-Erk kit (PerkinElmer MPSU-PTERK) following the manufacturer's protocol. Assay plates were read on an EnVision Multimode Plate Reader (PerkinElmer) and the ratio of p-Erk vs total Erk in each well was used as the final readout. Dose response curves were analyzed using a 4-parameter logistic model to calculate IC50 values using spotfire software.

[2] = NCI-H358 cells, 2 hour incubation, ratio of p-Erk vs total Erk, read-out: IC50

| SMILES | IC50 [1] [nM] | IC50 (NCI-H358 cells; [2]) [nM] | inhibition at 10 µM [1] [%] | IC50 (NCI-H358 cells) [nM] |
| --- | --- | --- | --- | --- |
| C=CC(=O)N1CCN(c2cc(C(=O)N3CCC[C@@H]3CN3CCCC3)nc3c2CCN(c2cccc4cccc(C)c24)C3)C[C@@H]1CC#N [Compound 63, 2-((S)-1-acryloyl-4-(7-(8-methylnaphthalen-1-yl)-2-((R)-2-(pyrrolidin-1-ylmethyl)pyrrolidine-1-carbonyl)-5,6,7,8-tetrahydro-1,7-naphthyridin-4-yl)piperazin-2-yl)acetonitrile] | 8 | – | – | 427 |
| C=CC(=O)N1CCN(c2cc(C(=O)NC3CCCCN(C)C3)nc3c2CCN(c2cccc4cccc(C)c24)C3)CC1 (racemic) [Compound 53, rac-4-(4-acryloylpiperazin-1-yl)-N-(1-methylazepan-3-yl)-7-(8-methylnaphthalen-1-yl)-5,6,7,8-tetrahydro-1,7-naphthyridine-2-carboxamide] | 5360 | – | – | – |
| C=CC(=O)N1CCN(c2cc(C(=O)N[C@H]3COC[C@H]3N)nc3c2CCN(c2cccc4cccc(C)c24)C3)CC1 (racemic) [Compound 28, rac-4-(4-acryloylpiperazin-1-yl)-N-(cis-4-aminotetrahydrofuran-3-yl)-7-(8-methylnaphthalen-1-yl)-5,6,7,8-tetrahydro-1,7-naphthyridine-2-carboxamide] | 7320 | – | – | – |
| C=CC(=O)N1CCN(c2cc(C(=O)NC(C)CN(CC)CC)nc3c2CCN(c2cccc4cccc(C)c24)C3)CC1 (racemic) [Compound 19, rac-4-(4-acryloylpiperazin-1-yl)-N-(1-(diethylamino)propan-2-yl)-7-(8-methylnaphthalen-1-yl)-5,6,7,8-tetrahydro-1,7-naphthyridine-2-carboxamide] | 3740 | – | – | – |
| C=CC(=O)N1CCN(c2cc(C(=O)NC(C)CN(C)C)nc3c2CCN(c2cccc4ccccc24)C3)CC1 (racemic) [Compound 6, rac-4-(4-acryloylpiperazin-1-yl)-N-(1-(dimethylamino)propan-2-yl)-7-(naphthalen-1-yl)-5,6,7,8-tetrahydro-1,7-naphthyridine-2-carboxamide] | 1690 | – | – | – |
| C=CC(=O)N1CCN(c2cc(C(=O)N(C)CCN(C)C)nc3c2CCN(c2cccc4cccc(C)c24)C3)CC1 [Compound 15, 4-(4-acryloylpiperazin-1-yl)-N-(2-(dimethylamino)ethyl)-N-methyl-7-(8-methylnaphthalen-1-yl)-5,6,7,8-tetrahydro-1,7-naphthyridine-2-carboxamide] | – | – | 33 | – |
| C=CC(=O)N1CCN(c2cc(C(=O)NCC3CN(C)CCO3)nc3c2CCN(c2cccc4cccc(C)c24)C3)CC1 (racemic) [Compound 55, rac-4-(4-acryloylpiperazin-1-yl)-N-((4-methylmorpholin-2-yl)methyl)-7-(8-methylnaphthalen-1-yl)-5,6,7,8-tetrahydro-1,7-naphthyridine-2-carboxamide] | – | – | 31 | – |
| C=CC(=O)N1CCN(c2cc(C(=O)N3CCCCC3CN(C)C)nc3c2CCN(c2cccc4cccc(C)c24)C3)CC1 (racemic) [Compound 47, rac-1-(4-(2-(2-((dimethylamino)methyl)piperidine-1-carbonyl)-7-(8-methylnaphthalen-1-yl)-5,6,7,8-tetrahydro-1,7-naphthyridin-4-yl)piperazin-1-yl)prop-2-en-1-one] | 7750 | – | – | – |

The next lines start with results.

| IC50 [1] [nM] | IC50 (NCI-H358 cells; [2]) [nM] | inhibition at 10 µM [1] [%] | SMILES | IC50 (NCI-H358 cells) [nM] |
| --- | --- | --- | --- | --- |
| 5.9 | 433 | – | C=CC(=O)N1CCN(c2cc(C(=O)N[C@H](C)CN)nc3c2CCN(c2cccc4cccc(C)c24)C3)C[C@@H]1CC#N [Compound 67, 4-((S)-4-acryloyl-3-(cyanomethyl)piperazin-1-yl)-N—((R)-1-aminopropan-2-yl)-7-(8-methylnaphthalen-1-yl)-5,6,7,8-tetrahydro-1,7-naphthyridine-2-carboxamide] | – |
| 22 | 5880 | – | C=CC(=O)N1CCN(c2cc(C(=O)NC3(CC#N)CNC3)nc3c2CCN(c2cccc4cccc(C)c24)C3)C[C@@H]1CC#N [Compound 100, (S)-4-(4-acryloyl-3-(cyanomethyl)piperazin-1-yl)-N-(3-(cyanomethyl)azetidin-3-yl)-7-(8-methylnaphthalen-1-yl)-5,6,7,8-tetrahydro-1,7-naphthyridine-2-carboxamide] | – |
| 26 | 14900 | – | C=CC(=O)N1CCN(c2cc(C(=O)N[C@H]3CNCC[C@H]3F)nc3c2CCN(c2cccc4cccc(C)c24)C3)C[C@@H]1CC#N [Compound 103, 4-((S)-4-acryloyl-3-(cyanomethyl)piperazin-1-yl)-N-((3S,4R)-4-fluoropiperidin-3-yl)-7-(8-methylnaphthalen-1-yl)-5,6,7,8-tetrahydro-1,7-naphthyridine-2-carboxamide] | – |
| 29 | 2970 | – | C=CC(=O)N1CCN(c2cc(C(=O)NC[C@H]3CC(F)(F)CN3)nc3c2CCN(c2cccc4cccc(C)c24)C3)C[C@@H]1CC#N [Compound 81, 4-((S)-4-acryloyl-3-(cyanomethyl)piperazin-1-yl)-N-(((R)-4,4-difluoropyrrolidin-2-yl)methyl)-7-(8-methylnaphthalen-1-yl)-5,6,7,8-tetrahydro-1,7-naphthyridine-2-carboxamide] | – |
| 5 | 611 | – | C=C(F)C(=O)N1CCN(c2cc(C(=O)NC(C)CN3CCC(C)(O)C3)nc3c2CCN(c2cccc4cccc(C)c24)C3)C[C@@H]1CC#N (single isomer, unassigned) [Compound 77, 4-((S)-3-(cyanomethyl)-4-(2-fluoroacryloyl)piperazin-1-yl)-N—((R or S)-1-((S or R)-3-hydroxy-3-methylpyrrolidin-1-yl)propan-2-yl)-7-(8-methylnaphthalen-1-yl)-5,6,7,8-tetrahydro-1,7-naphthyridine-2-carboxamide] | – |
| 1 | 41 | – | C=CC(=O)N1CCN(c2cc(C(=O)N[C@@H]3CCC[C@H]3N(C)C)nc3c2CCN(c2cccc4cccc(C)c24)C3)C[C@@H]1CC#N (mixture of isomers) [Compound 66, 4-((S)-4-acryloyl-3-(cyanomethyl)piperazin-1-yl)-N-((1R,2R)-2-(dimethylamino)cyclopentyl)-7-(8-methylnaphthalen-1-yl)-5,6,7,8-tetrahydro-1,7-naphthyridine-2-carboxamide, as a mixture with 4-((S)-4-acryloyl-3-(cyanomethyl)piperazin-1-yl)-N-((1S,2S)-2-(dimethylamino)cyclopentyl)-7-(8-methylnaphthalen-1-yl)-5,6,7,8-tetrahydro-1,7-naphthyridine-2-carboxamide] | – |
| – | 324 | – | C=CC(=O)N1CCN(c2cc(C(=O)NCC3CCCN3C)nc3c2CCN(c2cccc4cccc(C)c24)C3)C[C@@H]1CC#N (mixture of isomers) [Compound 82, 4-((S)-4-acryloyl-3-(cyanomethyl)piperazin-1-yl)-7-(8-methylnaphthalen-1-yl)-N-(((R)-1-methylpyrrolidin-2-yl)methyl)-5,6,7,8-tetrahydro-1,7-naphthyridine-2-carboxamide, as a mixture with 4-((S)-4-acryloyl-3-(cyanomethyl)piperazin-1-yl)-7-(8-methylnaphthalen-1-yl)-N-(((S)-1-methylpyrrolidin-2-yl)methyl)-5,6,7,8-tetrahydro-1,7-naphthyridine-2-carboxamide] | – |
